Reference: article PMC3597687 (Nucleic Acids Research, 2013)

Target: T1, LysMSs (S. solfataricus LysM) (Saccharolobus solfataricus, UniProt Q980W9)
T1 sequence (Q980W9 1-142): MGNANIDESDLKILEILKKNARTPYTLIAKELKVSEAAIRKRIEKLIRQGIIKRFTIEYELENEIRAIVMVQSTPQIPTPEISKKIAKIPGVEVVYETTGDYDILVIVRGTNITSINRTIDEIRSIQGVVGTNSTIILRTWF
Test: EMSA, effect on LysM binding to […]-labelled gltB operator DNA
Details: gltB control region 167-bp fragment; effector 5 mM; 250 nM LysM

Row | SMILES | EMSA, effect on LysM binding to 32P-labelled gltB operator DNA
1 | CC[C@H](C)[C@H](N)C(=O)O [L-isoleucine] | arginine, glutamine, isoleucine, leucine, methionine and valine also specifically reduce LysM binding
2 | CSCC[C@H](N)C(=O)O [L-methionine] | arginine, glutamine, isoleucine, leucine, methionine and valine also specifically reduce LysM binding
3 | NC(=O)CC[C@H](N)C(=O)O [L-glutamine] | arginine, glutamine, isoleucine, leucine, methionine and valine also specifically reduce LysM binding
4 | CC(C)[C@H](N)C(=O)O [L-valine] | arginine, glutamine, isoleucine, leucine, methionine and valine also specifically reduce LysM binding
5 | CC(C)C[C@H](N)C(=O)O [L-leucine] | arginine, glutamine, isoleucine, leucine, methionine and valine also specifically reduce LysM binding

Same assay, conditions: gltB control region 167-bp fragment; weak effector, mM range

Row | SMILES | EMSA, effect on LysM binding to 32P-labelled gltB operator DNA
6 | NC(=O)NCCC[C@H](N)C(=O)O [L-citrulline] | The effect of L-canavanine and L-citrulline was less pronounced
7 | N=C(N)NOCC[C@H](N)C(=O)O [L-canavanine] | The effect of L-canavanine and L-citrulline was less pronounced
